# Results as given in patent US9920010B2, “CXCR7 receptor modulators” (IDORSIA PHARMACEUTICALS LTD, priority 2013, dated 2018).
# Biological target: T1, CXCR7 (Homo sapiens, UniProt P25106)
# T1 construct: host or cells: CHO-K1 (PathHunter CHO-K1 CXCR7 b-arrestin cell line, stably transfected)
# Test: PathHunter CHO-K1 CXCR7 b-arrestin recruitment assay (CXCR7 agonistic activity)
# Type: cell-based
# Conditions: PathHunter CHO-K1 CXCR7 b-arrestin cell line
# Procedure, shortened: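 Stable CHO-K1 line with C-terminally ProLink-tagged CXCR7 and β-arrestin 2–EA fusion; β-arrestin recruitment restores β-gal activity, read by chemiluminescence after 1 h RT detection. Cells seeded 24 h, starved in OPTIMEM 3–4 h, exposed to compounds 90 min at 37 °C in HBSS/HEPES/BSA. Geometric-mean EC50 from repeated measurements.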
# T1 sequence (P25106 whole entry): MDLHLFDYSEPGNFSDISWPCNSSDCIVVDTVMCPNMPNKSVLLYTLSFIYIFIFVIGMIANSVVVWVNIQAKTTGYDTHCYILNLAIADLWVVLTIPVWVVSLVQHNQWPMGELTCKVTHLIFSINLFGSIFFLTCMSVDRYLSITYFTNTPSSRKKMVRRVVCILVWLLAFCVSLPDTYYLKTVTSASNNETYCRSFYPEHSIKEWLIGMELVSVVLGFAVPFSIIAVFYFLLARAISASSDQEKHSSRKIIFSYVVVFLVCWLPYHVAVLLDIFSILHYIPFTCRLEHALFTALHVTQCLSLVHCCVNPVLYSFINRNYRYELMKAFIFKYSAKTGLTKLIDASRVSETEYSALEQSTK
# T1 sequence (P32121 whole entry partner): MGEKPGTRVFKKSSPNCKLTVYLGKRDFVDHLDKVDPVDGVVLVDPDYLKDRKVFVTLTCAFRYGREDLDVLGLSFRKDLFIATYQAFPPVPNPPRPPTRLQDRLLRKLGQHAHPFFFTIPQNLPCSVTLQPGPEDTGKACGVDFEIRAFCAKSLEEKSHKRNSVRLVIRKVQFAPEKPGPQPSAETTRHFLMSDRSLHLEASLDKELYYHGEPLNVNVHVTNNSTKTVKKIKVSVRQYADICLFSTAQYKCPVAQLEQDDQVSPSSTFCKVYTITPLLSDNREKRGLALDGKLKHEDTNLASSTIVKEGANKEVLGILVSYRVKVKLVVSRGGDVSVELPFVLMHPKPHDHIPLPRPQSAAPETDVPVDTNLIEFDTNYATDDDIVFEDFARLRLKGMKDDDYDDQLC
row,Structure (SMILES),EC50 [nM]
1,"CCN(CCN(Cc1ccccc1C(F)(F)F)C(=O)CNc1cccc2c1CCN(CC1CC1)C2)C(=O)OC(C)(C)C [Example 232, {2-[[2-(2-Cyclopropylmethyl-1,2,3,4-tetrahydro-isoquinolin-5-ylamino)-acetyl]-(2-trifluoromethyl-benzyl)-amino]-ethyl}-ethyl-carbamic acid tert-butyl ester]",162
2,"NS(=O)(=O)CCN(Cc1ccccc1C(F)(F)F)C(=O)CNc1cccc2c1CCN(CC1CC1)C2 [Example 233, 2-(2-Cyclopropylmethyl-1,2,3,4-tetrahydro-isoquinolin-5-ylamino)-N-(2-sulfamoyl-ethyl)-N-(2-trifluoromethyl-benzyl)-acetamide]",72
3,"CN(C)CCN(Cc1ccccc1Br)C(=O)CNc1cccc2c1CCN(CC1CC1)C2 [Example 234, N-(2-Bromo-benzyl)-2-(2-cyclopropylmethyl-1,2,3,4-tetrahydro-isoquinolin-5-ylamino)-N-(2-dimethylamino-ethyl)-acetamide]",3
4,"CN(CCN(Cc1ccccc1Br)C(=O)CNc1cccc2c1CCN(CC1CC1)C2)C(=O)OC(C)(C)C [Example 235, (2-{(2-Bromo-benzyl)-[2-(2-cyclopropylmethyl-1,2,3,4-tetrahydro-isoquinolin-5-ylamino)-acetyl]-amino}-ethyl)-methyl-carbamic acid tert-butyl ester]",107
5,"CN(C)CCN(Cc1ncccc1Br)C(=O)CNc1cccc2c1CCN(CC1CC1)C2 [Example 236, N-(3-Bromo-pyridin-2-ylmethyl)-2-(2-cyclopropylmethyl-1,2,3,4-tetrahydro-isoquinolin-5-ylamino)-N-(2-dimethylamino-ethyl)-acetamide]",3
6,"CN(C)CCN(Cc1cccc(Br)c1)C(=O)CNc1cccc2c1CCN(CC1CC1)C2 [Example 237, N-(3-Bromo-benzyl)-2-(2-cyclopropylmethyl-1,2,3,4-tetrahydro-isoquinolin-5-ylamino)-N-(2-dimethylamino-ethyl)-acetamide]",5
7,"CN(C)CCN(Cc1ccc(Br)cc1)C(=O)CNc1cccc2c1CCN(CC1CC1)C2 [Example 238, N-(4-Bromo-benzyl)-2-(2-cyclopropylmethyl-1,2,3,4-tetrahydro-isoquinolin-5-ylamino)-N-(2-dimethylamino-ethyl)-acetamide]",43
8,"CN(C)CCN(Cc1ccncc1Br)C(=O)CNc1cccc2c1CCN(CC1CC1)C2 [Example 239, N-(3-Bromo-pyridin-4-ylmethyl)-2-(2-cyclopropylmethyl-1,2,3,4-tetrahydro-isoquinolin-5-ylamino)-N-(2-dimethylamino-ethyl)-acetamide]",23
9,"CC(C)(O)CN(Cc1ccccc1C(F)(F)F)C(=O)CNc1cccc2c1CCN(CC1CC1)C2 [Example 241, 2-(2-Cyclopropylmethyl-1,2,3,4-tetrahydro-isoquinolin-5-ylamino)-N-(2-hydroxy-2-methyl-propyl)-N-(2-trifluoromethyl-benzyl)-acetamide]",8
10,"O=C(CNc1cccc2c1CCN(CC1CC1)C2)N(Cc1ccccc1C(F)(F)F)CC1(O)CCCC1 [Example 243, 2-(2-Cyclopropylmethyl-1,2,3,4-tetrahydro-isoquinolin-5-ylamino)-N-(1-hydroxy-cyclopentylmethyl)-N-(2-trifluoromethyl-benzyl)-acetamide]",8
11,"CN(CCF)CCN(Cc1ccccc1C(F)(F)F)C(=O)CNc1cccc2c1CCN(CC1CC1)C2 [Example 244, 2-(2-Cyclopropylmethyl-1,2,3,4-tetrahydro-isoquinolin-5-ylamino)-N-{2-[(2-fluoro-ethyl)-methyl-amino]-ethyl}-N-(2-trifluoromethyl-benzyl)-acetamide]",3
12,"C=CCN(C)CCN(Cc1ccccc1C(F)(F)F)C(=O)CNc1cccc2c1CCN(CC1CC1)C2 [Example 245, N-[2-(Allyl-methyl-amino)-ethyl]-2-(2-cyclopropylmethyl-1,2,3,4-tetrahydro-isoquinolin-5-ylamino)-N-(2-trifluoromethyl-benzyl)-acetamide]",3
13,"C#CCN(C)CCN(Cc1ccccc1C(F)(F)F)C(=O)CNc1cccc2c1CCN(CC1CC1)C2 [Example 246, 2-(2-Cyclopropylmethyl-1,2,3,4-tetrahydro-isoquinolin-5-ylamino)-N-[2-(methyl-prop-2-ynyl-amino)-ethyl]-N-(2-trifluoromethyl-benzyl)-acetamide]",14
14,"O=C(CNc1cccc2c1CCN(CC1CC1)C2)N(Cc1cncs1)Cc1ccccc1C(F)(F)F [Example 247, 2-(2-Cyclopropylmethyl-1,2,3,4-tetrahydro-isoquinolin-5-ylamino)-N-thiazol-5-ylmethyl-N-(2-trifluoromethyl-benzyl)-acetamide]",29
15,"O=C(CNc1cccc2c1CCN(CC1CC1)C2)N(CCN1CCC(F)(F)CC1)Cc1ccccc1Cl [Example 248, N-(2-Chloro-benzyl)-2-(2-cyclopropylmethyl-1,2,3,4-tetrahydro-isoquinolin-5-ylamino)-N-[2-(4,4-difluoro-piperidin-1-yl)-ethyl]-acetamide]",32
16,"O=C(CNc1cccc2c1CCN(CC1CC1)C2)N(CCN1CCC(F)(F)CC1)Cc1ncccc1Cl [Example 249, N-(3-Chloro-pyridin-2-ylmethyl)-2-(2-cyclopropylmethyl-1,2,3,4-tetrahydro-isoquinolin-5-ylamino)-N-[2-(4,4-difluoro-piperidin-1-yl)-ethyl]-acetamide]",12
17,"CC(C)(O)CN(Cc1ncccc1Cl)C(=O)CNc1cccc2c1CCN(CC1CC1)C2 [Example 251, N-(3-Chloro-pyridin-2-ylmethyl)-2-(2-cyclopropylmethyl-1,2,3,4-tetrahydro-isoquinolin-5-ylamino)-N-(2-hydroxy-2-methyl-propyl)-acetamide]",24
18,"CC(C)(C)OC(=O)N1CCC(N(Cc2ccccc2C(F)(F)F)C(=O)CNc2cccc3c2CCN(CC2CC2)C3)CC1 [Example 252, 4-[[2-(2-Cyclopropylmethyl-1,2,3,4-tetrahydro-isoquinolin-5-ylamino)-acetyl]-(2-trifluoromethyl-benzyl)-amino]-piperidine-1-carboxylic acid tert-butyl ester]",426

# Second part, the compound after the results:
row,EC50 [nM],Structure (SMILES)
1,42,"CC(C)(C)OC(=O)N1CCC(CN(Cc2ccccc2C(F)(F)F)C(=O)CNc2cccc3c2CCN(CC2CC2)C3)C1 (centres unmarked) [Example 253, 3-{[[2-(2-Cyclopropylmethyl-1,2,3,4-tetrahydro-isoquinolin-5-ylamino)-acetyl]-(2-trifluoromethyl-benzyl)-amino]-methyl}-pyrrolidine-1-carboxylic acid tert-butyl ester]"
2,161,"CC(C)(C)OC(=O)N1CCC(N(Cc2ccccc2C(F)(F)F)C(=O)CNc2cccc3c2CCN(CC2CC2)C3)C1 (centres unmarked) [Example 254, 3-[[2-(2-Cyclopropylmethyl-1,2,3,4-tetrahydro-isoquinolin-5-ylamino)-acetyl]-(2-trifluoromethyl-benzyl)-amino]-pyrrolidine-1-carboxylic acid tert-butyl ester]"
3,390,"CN(C)CCN(Cc1ccncn1)C(=O)CNc1cccc2c1CCN(CC1CC1)C2 [Example 255, 2-(2-Cyclopropylmethyl-1,2,3,4-tetrahydro-isoquinolin-5-ylamino)-N-(2-dimethylamino-ethyl)-N-pyrimidin-4-ylmethyl-acetamide]"
4,11,"Cc1cccnc1CN(CCN(C)C)C(=O)CNc1cccc2c1CCN(CC1CC1)C2 [Example 256, 2-(2-Cyclopropylmethyl-1,2,3,4-tetrahydro-isoquinolin-5-ylamino)-N-(2-dimethylamino-ethyl)-N-(3-methyl-pyridin-2-ylmethyl)-acetamide]"
5,29,"CN(C)CCN(Cc1ccccn1)C(=O)CNc1cccc2c1CCN(CC1CC1)C2 [Example 257, 2-(2-Cyclopropylmethyl-1,2,3,4-tetrahydro-isoquinolin-5-ylamino)-N-(2-dimethylamino-ethyl)-N-pyridin-2-ylmethyl-acetamide]"
6,27,"Cc1ccc(CN(CCN(C)C)C(=O)CNc2cccc3c2CCN(CC2CC2)C3)nc1 [Example 258, 2-(2-Cyclopropylmethyl-1,2,3,4-tetrahydro-isoquinolin-5-ylamino)-N-(2-dimethylamino-ethyl)-N-(5-methyl-pyridin-2-ylmethyl)-acetamide]"
7,5,"Cc1cccc(CN(CCN(C)C)C(=O)CNc2cccc3c2CCN(CC2CC2)C3)n1 [Example 259, 2-(2-Cyclopropylmethyl-1,2,3,4-tetrahydro-isoquinolin-5-ylamino)-N-(2-dimethylamino-ethyl)-N-(6-methyl-pyridin-2-ylmethyl)-acetamide]"
8,125,"CN(C)CCN(Cc1ncccn1)C(=O)CNc1cccc2c1CCN(CC1CC1)C2 [Example 260, 2-(2-Cyclopropylmethyl-1,2,3,4-tetrahydro-isoquinolin-5-ylamino)-N-(2-dimethylamino-ethyl)-N-pyrimidin-2-ylmethyl-acetamide]"
9,47,"CN(C)CCN(Cc1ccc(Cl)cn1)C(=O)CNc1cccc2c1CCN(CC1CC1)C2 [Example 261, N-(5-Chloro-pyridin-2-ylmethyl)-2-(2-cyclopropylmethyl-1,2,3,4-tetrahydro-isoquinolin-5-ylamino)-N-(2-dimethylamino-ethyl)-acetamide]"
10,62,"CN(C)CCN(Cc1cncc(Cl)c1)C(=O)CNc1cccc2c1CCN(CC1CC1)C2 [Example 262, N-(5-Chloro-pyridin-3-ylmethyl)-2-(2-cyclopropylmethyl-1,2,3,4-tetrahydro-isoquinolin-5-ylamino)-N-(2-dimethylamino-ethyl)-acetamide]"
11,374,"CN(C)CCN(Cc1ccnn1C)C(=O)CNc1cccc2c1CCN(CC1CC1)C2 [Example 264, 2-(2-Cyclopropylmethyl-1,2,3,4-tetrahydro-isoquinolin-5-ylamino)-N-(2-dimethylamino-ethyl)-N-(2-methyl-2H-pyrazol-3-ylmethyl)-acetamide]"
